Experimental findings from US7041131B2, “Bioengineered vascular graft support prostheses” (Organogenesis, Inc., priority 1998, dated 2006) are described below.

Experiment [1] relates to tube supported vein grafts. In words: Isometric tension studies on rings of tube supported vein grafts. More on the design: species or system New Zealand male white rabbits. The following applies: for EC50: Oryctolagus cuniculus, 672 h, read-out: Sensitivity, -log10(EC50) (converted). The procedure:
(§1) Twenty-nine New Zealand male white rabbits underwent interposition bypass grafting of the right common carotid artery using the reversed ipsilateral jugular vein. In the experimental group (n=15), once the proximal anastomosis was performed, the vein was passed through a collagen tube having dimensions of 4 mm in diameter and 35 to 40 mm in length and the distal anastomosis was then completed. Leaks were repaired and the collagen tube was fashioned to completely cover the vein graft, including both anastomoses. Control animals (n=14) were treated identically but without tube support. One intraoperative death resulted from an unrecognized leak in the mid-segment of a vein graft in the experimental group. Otherwise, there were no other significant complications such as infection or bleeding in either group. […] Postoperatively, the flow rate and intraluminal pressure in vein grafts were measured on either day 3 or 28 (n=5 per group). Vein grafts were harvested on day 3 for assessment of tyrosine phosphorylation by Western blot analysis (n=4 per group), and on day 28 for morphometric measurement (n=5 per group), scanning and transmission electron microscopy (n=5 per group) and isometric tension studies (n=5 per group). On the day of harvest, animals were anesthetized and subsequently sacrificed with an intravenous overdose of barbiturates.
(§2) Vein grafts were sectioned into four 5 mm rings. In the tube supported group, the collagen tube was carefully dissected off and removed to allow unimpeded vessel contraction and relaxation. Each ring was immediately mounted between two stainless steel hooks in 5 ml organ baths containing oxygenated Krebs solution (122 mM NaCl, 4.7 mM KCl, 1 2 mM MgCl2, 2.5 mM CaCl2, 15.4 mM NaHCO3, 1.2 mM KH2PO4 and 5.5 mM glucose, maintained at 37° C. and oxygenated with 95% O2 and 5% CO2), as previously described with some modifications. In brief, following equilibration, the resting tension was adjusted in increments from 0.5 to 1.25 gms and the maximal response to a modified oxygenated Krebs solution containing 60 mM KCl, 66.7 mM NaCl, 1.2 mM MgCl2, 2.5 mM CaCl2, 15.4 mM NaHCO3, 1.2 mM KH2PO4 and 5.5 mM glucose was measured to establish a length-tension relationship. Cumulative dose response curves to the contractile agonists bradykinin (10^−9 to 10^−5 M), norepinephrine (10^−9 to 10^−4 M), and serotonin (10^−9 to 10^−4 M) were performed. Relaxation responses to acetylcholine (10^−8 to 10^−4 M), an endothelium dependent agonist, and nitroprusside (10^−8 to 10^−4 M), an endothelium independent agonist, were assessed on rings precontracted with norepinephrine, at the concentration which produced 80% of maximal contraction. All rings were allowed to re-equilibrate for a minimum of 30 minutes between each experimental run and the same sequence of agonist testing was maintained for all experiments. (All chemicals were obtained from Sigma Chemical Co. (St Louis, Mo.)).
(§3) The concentration for the half maximal response (EC50) was calculated by logistic analysis and the sensitivity is defined as -log10(EC50). In each vein graft, the sensitivity was determined for each vessel ring (4 rings per vein graft) and the mean was taken as the value for that vein graft. Values shown are the mean±s.e.m (n=5 per group). Statistical differences between the tube supported vein grafts and control vein grafts were compared using the unpaired Student's t-test.

Experiment [2] concerns control vein grafts. In words: Isometric tension studies on rings of control vein grafts. The arrangement: species or system New Zealand male white rabbits. The conditions noted are these: for EC50: Oryctolagus cuniculus, 672 h, read-out: Sensitivity, -log10(EC50) (converted); for EC50 / Sensitivity, -log10(EC50): day 28 control vein grafts without tube support, mean±s.e.m, n=5. The procedure:
as §1, §2, §3

The mark [3] stands for this setting: day 28 tube supported vein grafts, tube removed, mean±s.e.m, n=5.

What is called EC50 is the concentration needed to bring the measured effect to its halfway point.

Regarding `NC[C@H](O)c1ccc(O)c(O)c1` [Norepinephrine, norepinephrine], the half-maximal effective concentration (EC50) was 1.1 µM in experiment [1] (setting [3]) and 1.07 µM in experiment [2].

Consider `NCCc1c[nH]c2ccc(O)cc12` [Serotonin, serotonin], for which the 50% effective concentration (EC50) in experiment [1] (setting [3]) is 0.407 µM; in experiment [2], 0.525 µM.

Turning to nitroprusside, the “Sensitivity, -log10(EC50)” value in experiment [1] (setting [3]) was found to be 6.46 ± 0.12; in experiment [2], 6.73 ± 0.19.

`CC(=O)OCC[N+](C)(C)C` [Acetylcholine, acetylcholine]: in experiment [1] (setting [3]), the EC50 is 120 µM. In addition, the Maximal relaxation in experiment [1] (tube supported vein graft rings precontracted with norepinephrine) is given as 64 % of precontracted tension. Moreover, the “Sensitivity, -log10(EC50)” value in experiment [2] is reported as “no response”.

As for `[Cl-].[K+]` [KCl], the Contractile force in experiment [1] (60 mM KCl, tube supported vein grafts) worked out at 300 ± 46 mg; in experiment [2] (60 mM KCl, control vein grafts), 280 ± 47 mg.
